Type in all cases: functional
Assay [1] has as its system Onchocerca lienalis. In words: MMV: Percent motility assay at a compound concentration of 1.25e-5 M. Activity score legend: 3: Active, 2: Moderately active; 1: Inactive, 0: Toxic. The conditions noted are these: at 12.5 µM.
Assay [2] concerns Onchocerca lienalis. The assay can be described thus: MMV: Percent motility assay at a compound concentration of 3.1e-6 M. Activity score legend: 3: Active, 2: Moderately active; 1: Inactive, 0: Toxic. As to conditions: at 3.1 µM.
Assay [3] deals with Onchocerca lienalis. The assay can be described thus: MMV: Percent motility assay at a compound concentration of 1.9e-7 M. Activity score legend: 3: Active, 2: Moderately active; 1: Inactive, 0: Toxic. As to conditions: at 0.19 µM.
The subject of assay [4] is Onchocerca lienalis. The assay can be described thus: MMV: Percent motility assay at a compound concentration of 7.8e-7 M. Activity score legend: 3: Active, 2: Moderately active; 1: Inactive, 0: Toxic. The conditions noted are these: at 0.78 µM.

SMILES strings stand for the structures.

As to `O=C(Nc1ccccc1O)c1ccc(Oc2cccc(C(=O)Nc3ccccc3O)c2)cc1`, the Motility in assay [1], in assay [2], in assay [3] and in assay [4] was 100% throughout.
In the case of `Cl.N=c1n(CCN2CCCCC2)c2ccccc2n1CC(O)c1cccc(Br)c1` (centres undefined), the Motility in assay [1], in assay [2], in assay [3] and in assay [4] was 100% throughout.
In the case of `COc1cccc(Nc2nc(NCCO)c3ccccc3n2)c1.Cl`, the Motility in assay [1], in assay [2], in assay [3] and in assay [4] was 100% each time.
In the case of `Cc1ccc(-c2cc(C(=O)Nc3ccc(S(=O)(=O)N4CCCCC4)cc3)[nH]n2)c(O)c1`, the Motility in assay [1], in assay [2], in assay [3] and in assay [4] was 100% each time.
`COc1ccc(C(=O)Nc2ccc3nc(N4CCCCC4)cc(C)c3c2)cc1OC`: the Motility in assay [1], in assay [2], in assay [3] and in assay [4] was 100% each time.
For the compound `COc1ccc(N2CCN(C(CNC(=O)C3CCCCC3)c3ccc4c(c3)OCO4)CC2)cc1` (centres undefined), the Motility in assay [1], in assay [2], in assay [3] and in assay [4] was 100% each time.
As for `Cn1c(=O)c2cc(C(=O)NCCCN3CCCCCC3)sc2c2ccccc21`, the Motility in assay [1], in assay [2], in assay [3] and in assay [4] was 100% in each case.
With `Cc1[nH]c(-c2ccc(F)cc2)cc1C(=O)NC1CCN(Cc2ccccc2)CC1`, the Motility in assay [1], in assay [2], in assay [3] and in assay [4] was 100% throughout.
Regarding `COc1ccc(CCN2CCC(CN(C)Cc3cnn(-c4ccccc4)c3)CC2)cc1`, the Motility in assay [1], in assay [2], in assay [3] and in assay [4] was 100% in each case.
`O=C(NC(c1ccccc1)c1ccc2cccnc2c1O)c1ccccc1` (centres undefined): the Motility in assay [1] is reported as 26.66%; in assay [2] it was 33.33%; in assay [3], 100%; in assay [4], 100%.
Turning to `O=C(NC1CCCC1)c1ccc(N2CCC(NCc3cccc(C(F)(F)F)c3)CC2)cc1`, the Motility in assay [1], in assay [2], in assay [3] and in assay [4] was 100% in each case.
As to `CCOc1cc(Br)c(C(C)NC(=O)c2cccc(OC)c2)cc1OCC` (centres undefined), the Motility in assay [1], in assay [2], in assay [3] and in assay [4] was 100% throughout.
On to `CCN(CC)CCn1c(=N)n(CC(O)c2ccc(Cl)c(Cl)c2)c2ccccc21.Cl` (centres undefined), for which the Motility in assay [1], in assay [2], in assay [3] and in assay [4] was 100% each time.
With `CCOc1cc(Cl)c(C(C)NC(=O)c2cccc(OC)c2)cc1OCC` (centres undefined), the Motility in assay [1], in assay [2], in assay [3] and in assay [4] was 100% each time.
Regarding `FC(F)(F)c1cccc(Nc2nc(-c3ccccc3)nc3ncccc23)c1`, the Motility in assay [1], in assay [2], in assay [3] and in assay [4] was 100% throughout.
Take `Cc1ccc(Cl)cc1N1CCN(CCCNC(=O)C2CCN(c3nc4ccccc4[nH]3)CC2)CC1`: the Motility in assay [1], in assay [2], in assay [3] and in assay [4] was 100% in each case.
`COc1ccc(CNC2CCN(c3ccc(NC(=O)c4cccc(Cl)c4)cc3)CC2)cc1OC`: the Motility in assay [1], in assay [2], in assay [3] and in assay [4] was 100% throughout.
On to `Cc1ccc(CSCc2ccc(C(=O)NC3CC3)o2)cc1`, for which the Motility in assay [1], in assay [2], in assay [3] and in assay [4] was 100% throughout.
For `CC(NCc1ccccc1)c1cc(Cl)ccc1O` (centres undefined), the Motility in assay [1], in assay [2], in assay [3] and in assay [4] was 100% throughout.
In the case of `O=C(Nc1ccc(CN2CCOCC2)cc1)c1ccc(-c2ccc(Br)cc2)o1`, the Motility in assay [1], in assay [2], in assay [3] and in assay [4] was 100% each time.
In the case of `CC(=O)NCCc1nc2ccccc2n1Cc1ccc(C(C)C)cc1`, the Motility in assay [1], in assay [2], in assay [3] and in assay [4] was 100% throughout.
With `CCN(CC)c1ccc(NC(=O)c2cccs2)cc1`, the Motility in assay [1], in assay [2], in assay [3] and in assay [4] was 100% in each case.
On to `CCCC(c1nnnn1C1CCCCC1)N1CCN(C(=O)c2ccco2)CC1.Cl` (centres undefined), for which the Motility in assay [1], in assay [2], in assay [3] and in assay [4] was 100% each time.
For the compound `COc1cccc(-c2nn(C)c3sc(C(=O)NCCN4CCN(c5ccccc5F)CC4)cc23)c1`, the Motility in assay [1], in assay [2], in assay [3] and in assay [4] was 100% throughout.
For `Cc1ccc(CN2CCC(C(=O)Nc3ccc(-c4cc5ccccc5[nH]4)cc3)CC2)o1`, the Motility in assay [1], in assay [2], in assay [3] and in assay [4] was 100% throughout.
For `Cc1cc(C)c2nc(N3CCC(C(=O)NCCCN4CCC(N5CCCCC5)CC4)CC3)sc2c1`, the Motility in assay [1], in assay [2], in assay [3] and in assay [4] was 100% each time.
As to `O=C(Nc1ccsc1C(=O)NC1CCCCC1)c1ccc(F)cc1`, the Motility in assay [1], in assay [2], in assay [3] and in assay [4] was 100% in each case.
For `CC(C)(C)c1ccc(C(=O)Nc2nc3ccccc3s2)cc1`, the Motility in assay [1], in assay [2], in assay [3] and in assay [4] was 100% throughout.
Turning to `COc1ccccc1CNC(=O)C1c2ccccc2C(=O)N(CC(C)C)C1c1cccs1` (centres undefined), the Motility in assay [1], in assay [2], in assay [3] and in assay [4] was 100% in each case.
On to `COc1ccc(C2N(C)c3ccccc3N2C)cc1`, for which the Motility in assay [1], in assay [2], in assay [3] and in assay [4] was 100% throughout.
As to `CCN(CC)c1cc(C)c2cc(NC(=O)c3cccc(OC)c3)ccc2n1`, the Motility in assay [1], in assay [2], in assay [3] and in assay [4] was 100% each time.
As to `CC(C)OCc1cc(CN2CCN(c3cccc(Cl)c3)CC2)c(O)c2ncccc12`, the Motility in assay [1] is on record as 0%; in assay [2], 100%; in assay [3], 100%; in assay [4], 100%.
Regarding `O=C(Nc1ccc(F)c(Cl)c1)Nc1ccc(Cl)c(Cl)c1`, the Motility in assay [1] is given as 0%; in assay [2] it was 100%; in assay [3] it was 100%; in assay [4] it was 100%.
Regarding `CCOc1ccc(-c2nc(NC(=O)c3cccc(S(C)(=O)=O)c3)sc2C)cc1`, the Motility in assay [1], in assay [2], in assay [3] and in assay [4] was 100% throughout.
`COc1ccccc1N1CCN(C(CNS(=O)(=O)c2ccc(Cl)cc2)c2cccnc2)CC1` (centres undefined): the Motility in assay [1], in assay [2], in assay [3] and in assay [4] was 100% throughout.
Regarding `CCCc1c(C)nc2ccccc2c1O`, the Motility in assay [1], in assay [2], in assay [3] and in assay [4] was 100% throughout.
With `CCOc1c(Cl)cc(CNC(C)C(O)c2ccccc2)cc1OC` (centres undefined), the Motility in assay [1], in assay [2], in assay [3] and in assay [4] was 100% in each case.
As to `CCCN(CCC)CCCNC(=O)c1cc2c(-c3ccc(OC)c(OC)c3)nn(C)c2s1`, the Motility in assay [1], in assay [2], in assay [3] and in assay [4] was 100% in each case.
Consider `CN1c2ccccc2N(C)C1c1ccc2c(c1)OCO2`, for which the Motility in assay [1], in assay [2], in assay [3] and in assay [4] was 100% throughout.
With `O=C(NCC1Cc2cccc(-c3ccncc3)c2O1)c1csc2c1CCCC2` (centres undefined), the Motility in assay [1], in assay [2], in assay [3] and in assay [4] was 100% throughout.
Consider `C=C(C)CCC(C)N1CCC(N2CCC(C(=O)NCCc3ccccc3)CC2)CC1` (centres undefined), for which the Motility in assay [1], in assay [2], in assay [3] and in assay [4] was 100% in each case.
